Experimental data: article PMC2821452 (Synapse (New York, N.Y.), 2010)

Tested on: opioid receptors
Experiment: Affinity for opioid receptors
Format: binding
Conditions: unpublished data

affinity for opioid receptors: no affinity
Compound: CC(=O)O[C@@H]1C[C@H]2C(C)(C)C(=O)C=C[C@]2(C)[C@H]2CC[C@@]3(C)[C@H](c4ccoc4)OC(=O)[C@H]4O[C@]43[C@@]21C [Gedunin, (1S,3aS,4aR,4bS,5R,6aR,10aR,10bR,12aS)-5-(acetyloxy)-1-(3-furanyl)-1,5,6,6a,7,10a,10b,11,12,12a-decahydro-4b,7,7,10a,12a-pentamethyl-oxireno[c]phenanthro[1,2-d]pyran-3,8(3aH,4bH)-dione]
